Data taken from article PMC11530130, “Peripherally restricted PICK1 inhibitor mPD5 ameliorates pain behaviors in murine inflammatory and neuropathic pain models” (JCI Insight, 2024).
Values joined by “and” are separate entries in the source; they are usually repeats but may differ in a detail not shown here. Equal values may be shown once. “Also recorded” adds a separate entry of the source.

Tests used:
[1] = Plasma exposure after single s.c. injection, LC-MS/MS; format: in vivo, mouse; design: maximal plasma concentration / plasma concentration, individual mice: unit not given here
Protocol: Assessment of plasma levels and biodistribution of mPD5.
The mPD5 plasma exposure was determined by (WuXI AppTec (Shanghai, China)) and done following s.c. injection of three male C57BL/6N (vendor: VTLH) mice (7-9 weeks old, fasted) with each concentration of mPD5 (2, 10 and 50 µmol/kg) in sterile PBS. Blood samples were taken 30 min, 1 hour, 2 hours, 5 hours, and 12 hours following injection. For the repeated administration experiment, the initial s.c. injection of 10 µmol/kg was followed by 4 s.c. administrations of 2 µmol/kg with one hour between injections. Following the last injection, blood samples (0.03 mL from saphenous vein or other suitable site) were collected in EDTA- […]
K2 tubes at 5 min, 30 min, 1 hour, 5 hours, 12 hours, 24 hours, and 48 hours and centrifuged (app 4 ℃, 3200 g, 10 min) for collection of plasma. Plasma was transferred to 96 well plates and quick-frozen over dry ice and kept at -60 ℃ until LC-MS/MS analysis. For LC-MS/MS analysis plasma with 0.25% Triton X100 in 50% MeOH/water (6 µL) was quenched with 160 µL of IS1 (internal standard in MeOH (Labetalol & tolbutamide & Verapamil & dexamethasone & glyburide & Celecoxib 100 ng/mL for each)) and the mixture was vortexed for 10 min at 800 rpm and centrifuged for 15 min at 3220 × g at 4 ℃. An aliquot of 65 µL supernatant was transferred to a clean 96-well plate and centrifuged for 5 min at 3220 × g at 4 ℃, then the supernatant was directly injected for LC-MS/MS analysis. Plasma half-lives were determined from three points in the elimination phase. […]

[2] = test system: naive mice; assay: Open field locomotion; format: in vivo, mouse; design: total locomotion in open field, individual mice: unit not given here; conditions: for open field locomotion per 5min bin (Fig S8A): individual animals, listed as myr
Protocol: Concentration 10 µmol/kg: Wild type mice were habituated to the experimental room for a minimum of 60 min before initiation of the experiment. Female and male mice were run on separate days. Mice were injected s.c. with 10 μmol/kg mPD5 or sterile PBS directly before being placed in open field boxes (40 cm x 40 cm x 80 cm) for 2.5 hours with up to four mice in boxes at any one time. A video camera placed above the open field recorded the animals’ behaviour and Ethovision XT 13 (Noldus) was used to track the distance travelled by the […]
Concentration 30 + 50 µmol/kg: Animals were habituated to the experimental room for a minimum of 60 min before initiation of the experiment. At initiation of experiment, the mice (all male) were injected subcutaneously (s.c.) with mPD5 (30 or 50 μmol/kg, pH adjusted to approximately 7 with 5 M NaOH) or 0.9 % saline (B.Braun, Germany) and left in their home cage for 60 min. After exactly one hour, the mice were placed in an open field (40 cm x 40 cm x 80 cm) for 60 min. A video camera placed above the open field recorded the animals’ […]
animal. The experiment was run in cohort with Figure 2B+C of (9)). […]

CCCCCCCCCCCCCC(=O)N(CCOCCOCCC(=O)N[C@@H](Cc1c[nH]cn1)C(=O)N[C@@H](Cc1c[nH]c2ccccc12)C(=O)N[C@@H](CC(C)C)C(=O)N[C@@H](CCCCN)C(=O)N[C@H](C(=O)O)C(C)C)CCOCCOCCC(=O)N[C@@H](Cc1c[nH]cn1)C(=O)N[C@@H](Cc1c[nH]c2ccccc12)C(=O)N[C@@H](CC(C)C)C(=O)N[C@@H](CCCCN)C(=O)N[C@H](C(=O)O)C(C)C [mPD5, myristoyl-NPEG4-(HWLKV)2]
half-life ([1]; male, C57BL/6N, mouse, plasma, sc, 2 umol/kg, mice, s.c. 2 μmol/kg): 30 ± 4.2 min
half-life ([1]; male, C57BL/6N, mouse, plasma, sc, 10 umol/kg, mice, s.c. 10 μmol/kg): 35.4 ± 4.2 min
half-life ([1]; male, C57BL/6N, mouse, plasma, sc, 10 umol/kg; mice, s.c. 10 μmol/kg): 36 min
half-life ([1]; male, C57BL/6N, mouse, plasma, sc, 50 umol/kg, mice, s.c. 50 μmol/kg): 50.4 ± 1.8 min
Tmax ([1]; male, C57BL/6N, mouse, plasma, sc, 50 umol/kg; mice, s.c., all doses (2, 10, 50 μmol/kg); read-out: time of maximal plasma concentration): 60 min
maximal plasma concentration ([1]; mice, s.c. 2 μmol/kg, 1 hour): 1.4 ± 0.1
maximal plasma concentration ([1]; mice, s.c. 10 μmol/kg, 1 hour): 6.2 ± 5
maximal plasma concentration ([1]; mice, s.c. 50 μmol/kg, 1 hour): 20.2 ± 0.6
maximal dose and area under the curve vs dose ([1]; mice, s.c. 2, 10, 50 μmol/kg): scaled linearly with dose
distribution volume ([1]; mice, s.c., all concentrations): approximately 30 mL
elimination kinetics ([1]; mice, s.c., all doses): first-order kinetics; also recorded: eliminated with linear kinetics
plasma concentration, individual mice ([1]; s.c. 2µmol/kg; 0.5 h): 1295 and 1523 and 1490
plasma concentration, individual mice ([1]; s.c. 2µmol/kg; 1 h): 1326 and 1469 and 1351
plasma concentration, individual mice ([1]; s.c. 2µmol/kg; 2 h): 439 and 392 and 443
plasma concentration, individual mice ([1]; s.c. 2µmol/kg; 5 h): 8.69 and 2.25 and 8.61
plasma concentration, individual mice ([1]; s.c. 10µmol/kg; 0.5 h): 4235 and 5102 and 3488
plasma concentration, individual mice ([1]; s.c. 10µmol/kg; 1 h): 6616 and 5618 and 6285
plasma concentration, individual mice ([1]; s.c. 10µmol/kg; 2 h): 2485 and 2007 and 1777
plasma concentration, individual mice ([1]; s.c. 10µmol/kg; 5 h): 101 and 46.6 and 33.1
plasma concentration, individual mice ([1]; s.c. 50µmol/kg; 0.5 h): 12546 and 11390 and 17752
plasma concentration, individual mice ([1]; s.c. 50µmol/kg; 1 h): 20045 and 20980 and 19750
plasma concentration, individual mice ([1]; s.c. 50µmol/kg; 2 h): 14800 and 13957 and 8907
plasma concentration, individual mice ([1]; s.c. 50µmol/kg; 5 h): 1391 and 1198 and 438
plasma concentration, individual mice ([1]; s.c. 50µmol/kg; 12 h): 3.21 and 3.81 and 2.66
overall locomotion in open field ([2]; both sexes, s.c. 10 μmol/kg, 150 minutes): overall locomotion was the same between groups
open field locomotion per 5min bin (Fig S8A) ([2]; myr 30 sc, time bin 5): 9.792 and 20.2101 and 12.2703 and 19.016 and 30.6965 and 16.9458
open field locomotion per 5min bin (Fig S8A) ([2]; myr 30 sc, time bin 10): 7.961 and 14.7148 and 7.884 and 18.3273
open field locomotion per 5min bin (Fig S8A) ([2]; myr 30 sc, time bin 35): 5.715 and 10.7688 and 1.1088 and 12.4123 and 20.664 and 5.688
open field locomotion per 5min bin (Fig S8A) ([2]; myr 30 sc, time bin 40): 11.1707 and 7.0291 and 1.7211 and 14.3893 and 18.0978 and 1.491
open field locomotion per 5min bin (Fig S8A) ([2]; myr 30 sc, time bin 45): 1.78 and 8.087 and 5.349 and 15.4878 and 14.3776 and 5.135
open field locomotion per 5min bin (Fig S8A) ([2]; myr 30 sc, time bin 50): 0.4107 and 5.0774 and 0.9705 and 10.9758 and 18.1434 and 3.971
open field locomotion per 5min bin (Fig S8A) ([2]; myr 30 sc, time bin 55): 2.375 and 2.374 and 0.2143 and 12.0295 and 18.4127 and 1.9358
open field locomotion per 5min bin (Fig S8A) ([2]; myr 30 sc, time bin 60): 5.982 and 3.075 and 0.4734 and 12.4806 and 21.7634 and 4.464
open field locomotion per 5min bin (Fig S8A) ([2]; myr 50 sc, time bin 5): 18.0979 and 18.5029 and 7.528 and 18.9529 and 21.6506 and 14.4427 and 14.0357
open field locomotion per 5min bin (Fig S8A) ([2]; myr 50 sc, time bin 10): 7.558 and 10.3984 and 2.952 and 12.1538 and 11.8366
open field locomotion per 5min bin (Fig S8A) ([2]; myr 50 sc, time bin 35): 4.238 and 1.175 and 0.5656 and 5.236 and 7.164 and 13.3118 and 5.291
open field locomotion per 5min bin (Fig S8A) ([2]; myr 50 sc, time bin 40): 1.639 and 8.588 and 1.093 and 4.076 and 7.194 and 14.7431 and 4.194
open field locomotion per 5min bin (Fig S8A) ([2]; myr 50 sc, time bin 45): 1.4137 and 3.876 and 1.161 and 4.905 and 5.068 and 11.8464 and 7.804
open field locomotion per 5min bin (Fig S8A) ([2]; myr 50 sc, time bin 50): 0.9835 and 5.464 and 0.5467 and 1.258 and 0.6955 and 8.558 and 8.666
open field locomotion per 5min bin (Fig S8A) ([2]; myr 50 sc, time bin 55): 1.533 and 3.196 and 1.532 and 1.249 and 4.7524 and 13.5785 and 1.184
open field locomotion per 5min bin (Fig S8A) ([2]; myr 50 sc, time bin 60): 1.079 and 3.0668 and 0.6715 and 10.3299 and 7.512 and 5.91 and 5.742
total locomotion in open field, individual mice ([2]; s.c. 10 μmol/kg, 150 minutes): 177.609 and 107.816 and 106.645 and 245.588 and 278.41 and 220.659 and 185.74 and 353.332 and 277.158 and 380.649 and 207.835
locomotor activity in open field ([2]; s.c. 30 or 50 μmol/kg): did not show any significant effect on locomotor activity
